A short description of data set [1]: Plasma clearance in Sprague-Dawley rat. It is filed as ADME, organism-based.
Data set [2] is described as follows: Volume of distribution in Sprague-Dawley rat. In kind it is ADME, organism-based. The settings on record: in vivo, read-out: Vdss.
Data set [3] can be described thus: Plasma clearance in Beagle dog. In kind it is ADME, organism-based, Canis lupus familiaris.
Data set [4] can be described thus: Volume of distribution in Beagle dog. The settings on record: in vivo, read-out: Vdss. It is filed as ADME, organism-based, Canis lupus familiaris.
A short description of data set [5]: Half life in Sprague-Dawley rat. In kind it is ADME, organism-based. The settings on record: in vivo.
Data set [6] in a line: Oral bioavailability in Sprague-Dawley rat. In kind it is ADME, organism-based. The settings on record: in vivo.
The nature of data set [7]: Half life in Beagle dog. In kind it is ADME, organism-based, Canis lupus familiaris. The settings on record: in vivo.
Data set [8] is described as follows: Oral bioavailability in Beagle dog. In kind it is ADME, organism-based, Canis lupus familiaris. The settings on record: in vivo.

Consider `C[C@@H](C(=O)N1CCOCC1)N1CC[C@H](NS(=O)(=O)/C=C/c2ccc(Cl)s2)C1=O` [GW813893], for which the clearance (in general, the volume of plasma or blood freed of the substance per unit of time) in data set [1] was found to be 8 mL/min/kg; in data set [3], 4.6 mL/min/kg. Also, the figures for the Vd in data set [2] and in data set [4] were 0.3 L/kg and 0.4 L/kg, respectively.
For the compound `C/C(=C\S(=O)(=O)N[C@H]1CCN([C@@H](C)C(=O)N2CCOCC2)C1=O)c1ccc(Cl)s1`, the half-life (usually the time needed for the level to fall by half in the phase considered) in data set [5] was 18 min; in data set [7], 36 min. The clearance is 21 mL/min/kg in data set [1] and 5.7 mL/min/kg in data set [3]. In addition, the Vd in data set [2] came to 0.4 L/kg; in data set [4], 0.3 L/kg. Moreover, the figures for the bioavailability in data set [6] and in data set [8] were 32% and 48%, respectively.
Turning to `C[C@@H](C(=O)N1CCOCC1)N1CC[C@H](NS(=O)(=O)CCc2ccc(Cl)s2)C1=O`, the half-life is 18 min in data set [5] and 30 min in data set [7]. Besides, the clearance in data set [1] is 28 mL/min/kg; in data set [3] it was 13 mL/min/kg. In addition, the Vd was found to be 0.8 L/kg in data set [2] and 0.5 L/kg in data set [4]. For the same compound, the figures for the bioavailability in data set [6] and in data set [8] were 31% and 38%, respectively.
